Reference: patent EP0382634A1, “Pyridazine derivatives, process for their preparation and pharmaceutical compositions containing them” (ELF SANOFI, priority 1989, dated 1990)

Key:
récepteurs de type M1 = target: T1, récepteurs de type M1 (Homo sapiens, UniProt P11229); test: Muscarinic M1 receptor ligand binding (technique of Watson et al.); conditions: in vitro; read-out: concentration inhibitrice 50 sur le ligand des récepteurs M1
T1 construct: une spécificité marquée pour les récepteurs centraux de type M1 vis-à-vis des récepteurs périphériques de type M2; from tissue; host or cells: central (brain) tissue
T1 sequence (P11229 1-460): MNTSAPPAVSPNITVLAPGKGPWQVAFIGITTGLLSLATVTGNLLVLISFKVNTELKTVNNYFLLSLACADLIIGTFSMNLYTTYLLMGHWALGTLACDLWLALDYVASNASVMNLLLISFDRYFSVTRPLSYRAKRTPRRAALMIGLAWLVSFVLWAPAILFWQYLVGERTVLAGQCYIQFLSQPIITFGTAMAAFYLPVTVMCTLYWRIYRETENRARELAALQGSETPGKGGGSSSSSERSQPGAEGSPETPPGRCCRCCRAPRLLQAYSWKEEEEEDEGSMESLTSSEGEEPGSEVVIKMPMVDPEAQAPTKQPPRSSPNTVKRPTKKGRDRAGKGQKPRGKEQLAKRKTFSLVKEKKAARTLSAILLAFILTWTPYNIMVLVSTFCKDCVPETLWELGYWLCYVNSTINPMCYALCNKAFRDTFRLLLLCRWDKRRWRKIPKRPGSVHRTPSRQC
From the text: In vitro, les composés (I) ont été essayés suivant la technique décrite par Watson J.D. et al. (Life Science, 1982, 31, 2019-2029) en ce qui concerne leur activité sur les récepteurs de type M1 et selon la technique décrite par Hammer R. et al. (Nature, 1980, 283, 90,92) et Hulme E.C. et al. (Molecular Pharmacology, 1978, 14, 737-750), en ce qui concerne leur activité sur les récepteurs de type M2.

[1] = test system: rotations induites par la pirenzépine; test: Pirenzepine-induced rotations test (Worms et al., modified: oral dosing 4 h before pirenzepine); type: in vivo; conditions: 3 mg/kg body weight, 4 h before pirenzepine injection
Method: In vivo, les composés selon l'invention ont été essayés sur le test des rotations induites par la pirenzépine décrit par Worms P. et al. (Psychopharmacology, 1987, 93, 489-493) modifié en ce que l'administration des produits par voie orale qui a eu lieu 4 heures au lieu de 30 minutes avant l'injection de pirenzépine.

IC50 (récepteurs de type M1) [nM]	SMILES	inhibition des rotations induites par la pirenzépine [1] [%]
30	CCCc1cc(NCC2CCCN2CC)nnc1-c1ccccc1 (stereo not drawn) [SR 96181]	71
	Cc1cc(NCc2ccccn2)nnc1-c1ccccc1 [SR 96204 A]	67
